Data published in patent publication US6737383B1, “Herbicidal oxadiazolidines” (priority 1999, dated 2004).

Legend:
crabgrass = assay: Test B pre/postemergence crabgrass; assay type: in vivo, Digitaria sanguinalis
Procedure, shortened: (§1)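 Herbicidal effect was estimated by eye on a ten-point control scale after plants spent twelve to sixteen days in a greenhouse following soil or foliar treatment. Foliar sprays targeted plants at one to four leaves; all doses were formulated in a non-phytotoxic solvent with surfactant.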

rape = assay: Test B pre/postemergence rape; assay type: in vivo, Brassica napus
Procedure, shortened: as §1

blackgrass = assay: Test B pre/postemergence blackgrass; assay type: in vivo, Alopecurus myosuroides
Procedure, shortened: as §1

duck salad = assay: Test B flood test duck salad; assay type: in vivo, Heteranthera limosa
Procedure, shortened: (§2)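 Each value is a visual injury score relative to controls, with 10 meaning complete control and 0 no effect. Evaluation took place twelve to sixteen days after the 2-leaf-stage plants were treated and kept in the greenhouse.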

morningglory = assay: Test B pre/postemergence morningglory; assay type: in vivo, Ipomoea hederacea
Procedure, shortened: as §1

smallflower flatsedge = assay: Test B flood test smallflower flatsedge; assay type: in vivo, Cyperus difformis
Procedure, shortened: as §2

giant foxtail = assay: Test B pre/postemergence giant foxtail; assay type: in vivo, Setaria faberii
Procedure, shortened: as §1

purple nutsedge = assay: Test B pre/postemergence purple nutsedge; assay type: in vivo, Cyperus rotundus
Procedure, shortened: as §1

corn = assay: Test B pre/postemergence corn; assay type: in vivo, Zea mays
Procedure, shortened: as §1

rice = assay: Test B flood test rice; assay type: in vivo, Oryza sativa
Procedure, shortened: as §2

wild oat = assay: Test B pre/postemergence wild oat; assay type: in vivo, Avena fatua
Procedure, shortened: as §1

velvetleaf = assay: Test B pre/postemergence velvetleaf; assay type: in vivo, Abutilon theophrasti
Procedure, shortened: as §1

soybean = assay: Test B pre/postemergence soybean; assay type: in vivo, Glycine max
Procedure, shortened: as §1

bedstraw = assay: Test B pre/postemergence bedstraw; assay type: in vivo, Galium aparine; conditions: Postemergence
Procedure, shortened: as §1

surinam grass = assay: Test B pre/postemergence surinam grass; assay type: in vivo, Brachiaria decumbens
Procedure, shortened: as §1

wheat = assay: Test B pre/postemergence wheat; assay type: in vivo, Triticum aestivum
Procedure, shortened: as §1

[1] = Postemergence, Rate 250 g/ha, scale 0 to 10
[2] = Postemergence, Rate 500 g/ha, scale of 0 to 10 where 0 is no effect and 10 is complete control
[3] = Preemergence, Rate 125 g/ha, scale of 0 to 10 where 0 is no effect and 10 is complete control
[4] = Preemergence, Rate 250 g/ha, scale 0 to 10, 0 is no effect, 10 is complete control
[5] = Preemergence, Rate 500 g/ha, scale 0 to 10, 0 is no effect, 10 is complete control
[6] = Rate 62 g/ha, Postemergence, scale 0 to 10 (0 no effect, 10 complete control)
[7] = Rate 125 g/ha, Postemergence, scale 0 to 10, 0 is no effect, 10 is complete control
[8] = Preemergence, Rate 62 g/ha, scale 0 to 10 (0 no effect, 10 complete control)
[9] = Postemergence block (flood test species), Rate 250 g/ha, scale 0 to 10
[10] = Postemergence section (flood test species), Rate 500 g/ha, scale of 0 to 10 where 0 is no effect and 10 is complete control
[11] = Rate 62 g/ha, Postemergence (flood test), scale 0 to 10, 0 no effect, 10 complete control
[12] = Rate 125 g/ha, Postemergence section (flood test species), scale 0 to 10, 0 is no effect, 10 is complete control

CC(C)N(C(=O)n1oc(=O)n(C(C)C#N)c1=O)c1ccccc1 (stereo not drawn) [Compound 435]
Crabgrass plant response rating (crabgrass; [1]): 7 | Crabgrass plant response rating (crabgrass; [2]): 8 | Plant response rating, Crabgrass (crabgrass; [3]): 2 | Crabgrass plant response rating (crabgrass; [4]): 6 | Crabgrass plant response rating (crabgrass; [5]): 9 | Crabgrass plant response rating (crabgrass; [6]): 0 | Crabgrass plant response rating (crabgrass; [7]): 2 | Rape plant response rating (rape; [1]): 0 | Rape plant response rating (rape; [2]): 0 | Plant response rating, Rape (rape; [8]): 0 | Plant response rating, Rape (rape; [3]): 0 | Rape plant response rating (rape; [4]): 0 | Rape plant response rating (rape; [5]): 0 | Rape plant response rating (rape; [6]): 0 | Rape plant response rating (rape; [7]): 0 | Blackgrass plant response rating (blackgrass; [1]): 6 | Blackgrass plant response rating (blackgrass; [2]): 8 | Plant response rating, Blackgrass (blackgrass; [8]): 0 | Plant response rating, Blackgrass (blackgrass; [3]): 0 | Blackgrass plant response rating (blackgrass; [4]): 0 | Blackgrass plant response rating (blackgrass; [5]): 2 | Blackgrass plant response rating (blackgrass; [6]): 0 | Blackgrass plant response rating (blackgrass; [7]): 0 | Ducksalad plant response rating (duck salad; [9]): 0 | Ducksalad plant response rating (duck salad; [10]): 0 | Ducksalad plant response rating (duck salad; [11]): 0 | Ducksalad plant response rating (duck salad; [12]): 0 | Morningglory plant response rating (morningglory; [1]): 6 | Morningglory plant response rating (morningglory; [2]): 9 | Plant response rating, Morningglory (morningglory; [8]): 0 | Plant response rating, Morningglory (morningglory; [3]): 0 | Morningglory plant response rating (morningglory; [4]): 0 | Morningglory plant response rating (morningglory; [5]): 0 | Morningglory plant response rating (morningglory; [6]): 1 | Morningglory plant response rating (morningglory; [7]): 2 | S. Flatsedge plant response rating (smallflower flatsedge; [9]): 0 | S. Flatsedge plant response rating (smallflower flatsedge; [10]): 0 | S. Flatsedge plant response rating (smallflower flatsedge; [11]): 0 | S. Flatsedge plant response rating (smallflower flatsedge; [12]): 0 | Giant foxtail plant response rating (giant foxtail; [1]): 8 | Giant foxtail plant response rating (giant foxtail; [2]): 9 | Plant response rating, Giant foxtail (giant foxtail; [8]): 0 | Plant response rating, Giant foxtail (giant foxtail; [3]): 2 | Giant foxtail plant response rating (giant foxtail; [4]): 3 | Giant foxtail plant response rating (giant foxtail; [5]): 9 | Giant foxtail plant response rating (giant foxtail; [6]): 0 | Giant foxtail plant response rating (giant foxtail; [7]): 3 | Nutsedge plant response rating (purple nutsedge; [1]): 0 | Nutsedge plant response rating (purple nutsedge; [2]): 3 | Plant response rating, Nutsedge (purple nutsedge; [8]): 0 | Plant response rating, Nutsedge (purple nutsedge; [3]): 0 | Nutsedge plant response rating (purple nutsedge; [4]): 0 | Nutsedge plant response rating (purple nutsedge; [5]): 0 | Nutsedge plant response rating (purple nutsedge; [6]): 0 | Nutsedge plant response rating (purple nutsedge; [7]): 0 | Corn plant response rating (corn; [1]): 0 | Corn plant response rating (corn; [2]): 0 | Plant response rating, Corn (corn; [8]): 0 | Plant response rating, Corn (corn; [3]): 0 | Corn plant response rating (corn; [4]): 0 | Corn plant response rating (corn; [5]): 0 | Corn plant response rating (corn; [6]): 0 | Corn plant response rating (corn; [7]): 0 | Rice plant response rating (rice; [9]): 0 | Rice plant response rating (rice; [10]): 0 | Rice plant response rating (rice; [11]): 0 | Rice plant response rating (rice; [12]): 0 | Wild oats plant response rating (wild oat; [1]): 0 | Wild oats plant response rating (wild oat; [2]): 3 | Plant response rating, Wild oats (wild oat; [8]): 0 | Plant response rating, Wild oats (wild oat; [3]): 0 | Wild oats plant response rating (wild oat; [4]): 2 | Wild oats plant response rating (wild oat; [5]): 3 | Wild oats plant response rating (wild oat; [6]): 0 | Wild oats plant response rating (wild oat; [7]): 0 | Velvetleaf plant response rating (velvetleaf; [1]): 0 | Velvetleaf plant response rating (velvetleaf; [2]): 0 | Plant response rating, Velvetleaf (velvetleaf; [8]): 0 | Plant response rating, Velvetleaf (velvetleaf; [3]): 0 | Velvetleaf plant response rating (velvetleaf; [4]): 1 | Velvetleaf plant response rating (velvetleaf; [5]): 2 | Velvetleaf plant response rating (velvetleaf; [6]): 0 | Velvetleaf plant response rating (velvetleaf; [7]): 0 | Soybean plant response rating (soybean; [1]): 1 | Soybean plant response rating (soybean; [2]): 3 | Plant response rating, Soybean (soybean; [8]): 0 | Plant response rating, Soybean (soybean; [3]): 0 | Soybean plant response rating (soybean; [4]): 0 | Soybean plant response rating (soybean; [5]): 0 | Soybean plant response rating (soybean; [6]): 0 | Soybean plant response rating (soybean; [7]): 1 | Bedstraw plant response rating (bedstraw; Rate 250 g/ha, scale 0 to 10): 0 | Bedstraw plant response rating (bedstraw; Rate 500 g/ha, scale of 0 to 10 where 0 is no effect and 10 is complete control): 0 | Bedstraw plant response rating (bedstraw; Rate 62 g/ha, scale 0 to 10 (0 no effect, 10 complete control)): 0 | Bedstraw plant response rating (bedstraw; Rate 125 g/ha, scale 0 to 10, 0 is no effect, 10 is complete control): 0 | B. signalgrass plant response rating (surinam grass; Postemergence, Rate 250 g/ha, scale 0 to 10, 0 no effect, 10 complete control): 1 | B. signalgrass plant response rating (surinam grass; [2]): 3 | Plant response rating, B. signalgrass (surinam grass; [8]): 0 | Plant response rating, B. signalgrass (surinam grass; [3]): 0 | B. signalgrass plant response rating (surinam grass; [4]): 0 | B. signalgrass plant response rating (surinam grass; [5]): 1 | B. signalgrass plant response rating (surinam grass; [6]): 0 | B. signalgrass plant response rating (surinam grass; [7]): 0 | Wheat plant response rating (wheat; [1]): 0 | Wheat plant response rating (wheat; [2]): 0 | Plant response rating, Wheat (wheat; [8]): 0 | Plant response rating, Wheat (wheat; [3]): 0 | Wheat plant response rating (wheat; [4]): 0 | Wheat plant response rating (wheat; [5]): 0 | Wheat plant response rating (wheat; [6]): 0 | Wheat plant response rating (wheat; [7]): 0
